What all share (assay type): functional
Test [1] has as its system Enterococcus faecalis. The experiment in a line: Antibacterial activity against Enterococcus faecalis bc11148-2.
Test [2] deals with Streptococcus pneumoniae. The test can be described thus: Antibacterial activity against Streptococcus pneumoniae 49619.
Test [3] deals with Streptococcus pneumoniae. The test can be described thus: Antibacterial activity against Streptococcus pneumoniae 280-962.
Test [4] concerns Enterococcus faecalis. The test can be described thus: Antibacterial activity against Enterococcus faecalis 29212.
Test [5] relates to Staphylococcus aureus. The test can be described thus: Antibacterial activity against Staphylococcus aureus 33591.
Test [6] has as its system Haemophilus influenzae. The experiment in a line: Antibacterial activity against Haemophilus influenzae 49247.
Another test has as its system Streptococcus pyogenes. The test can be described thus: Antibacterial activity against Streptococcus pyogenes 8668.
Test [7] concerns Streptococcus pneumoniae. The experiment in a line: Antibacterial activity against Streptococcus pneumoniae Mef 5654.
Test [8] relates to Staphylococcus aureus. The experiment in a line: Antibacterial activity against Staphylococcus aureus 29213.
For test [9], the system named is Staphylococcus epidermidis. The test can be described thus: Antibacterial activity against Staphylococcus epidermidis f50654.
Test [10] has as its system Streptococcus pneumoniae. The test can be described thus: Antibacterial activity against Streptococcus pneumoniae 297-749.
Test [11] concerns Streptococcus pneumoniae. The experiment in a line: Antibacterial activity against Streptococcus pneumoniae Mef S 3427.
For test [12], the system named is Staphylococcus epidermidis. The experiment in a line: Antibacterial activity against Staphylococcus epidermidis 14990.
Test [13] concerns Streptococcus pneumoniae. The test can be described thus: Antibacterial activity against Streptococcus pneumoniae Erm 6849.
In test [14] the test system is Haemophilus influenzae. The experiment in a line: Antibacterial activity against Haemophilus influenzae 2762.

In brackets after ≈: the same amount, converted by molar mass. Some results are limits rather than exact numbers.

Turning to `C=C[C@]12OC(=O)N(CCCCn3cnc(-c4ccc(F)nc4)c3)[C@@H]1[C@@H](C)C(=O)[C@H](C)C[C@@](C)(OC)[C@H](O[C@@H]1O[C@H](C)C[C@H](N(C)C)[C@H]1O)[C@@H](C)C(=O)[C@@H](C)C(=O)O[C@@H]2CC`, the MIC against Enterococcus faecalis [1] was 0.4 µg/mL (≈ 0.475 µM); in the test with Streptococcus pneumoniae [2], no more than 0.05 µg/mL; in the test with Streptococcus pneumoniae [3], no more than 0.05 µg/mL; in the test on Enterococcus faecalis [4], 0.1 µg/mL (≈ 0.119 µM); in the test on Staphylococcus aureus [5] it was greater than 50 µg/mL; in the test on Haemophilus influenzae [6] it was 3.13 µg/mL (≈ 3.72 µM). In addition, the MIC is no more than 0.05 µg/mL in the test with Streptococcus pyogenes; 0.4 µg/mL (≈ 0.475 µM) in the test on Streptococcus pneumoniae [7]; 0.1 µg/mL (≈ 0.119 µM) with Staphylococcus aureus [8]; 0.1 µg/mL (≈ 0.119 µM) in test [9]; no more than 0.05 µg/mL with Streptococcus pneumoniae [10]; 0.1 µg/mL (≈ 0.119 µM) in the test with Streptococcus pneumoniae [11]. Moreover, the MIC in [12] is 0.1 µg/mL (≈ 0.119 µM); against Streptococcus pneumoniae [13], 0.78 µg/mL (≈ 0.926 µM); against Haemophilus influenzae [14] it was 1.56 µg/mL (≈ 1.85 µM).

Source of the values: ChEMBL document CHEMBL1138190, “Synthesis and antibacterial activity of novel C12 vinyl ketolides” (J Med Chem, 2006).
